Measured values published in patent US7494980B2, “Antimicrobial peptide and methods of use thereof” (The United States of America as represented by the …, priority 2003, dated 2009).
Ends that are not written are not given here.

Columns and labels:
[1] = system: Actinomyces naeslundii T14V-J1; assay: In vitro susceptibility (broth microdilution MIC, MBC by spiral-plating); type: cell-based; details: 24-48 h
Source text: (§1) Strains used in Examples 3-6 included ATCC and laboratory strains of different oral bacteria. These included: Actinomyces naeslundii strain T14V-J1, Actinomyces israelii ATCC 10049, Streptococcus mutans strains LT 11 and ATCC 25175, Streptococcus sobrinus ATCC 33478, Streptococcus gordonii strains DL1 and ATCC 51656, Streptococcus sanguis strains SK36 and ATCC 10556, Streptococcus salivarius ATCC 9222, Streptococcus oralis strains 34 and ATCC 35037, Lactobacillus salivarius ATCC 29602, Lactobacillus acidophilus ATCC 4357, and Actinobacillus actinomycetemcomitans ATCC 43718. S. mutans strain LT 11 was kindly provided by Lin Tao, University of Illinois at Chicago, Ill. S. gordonii DLI, S. sanguis SK36, and S. oralis 34 were provided by John Cisar, National Institute of Dental and Craniofacial Research, NIH, Bethesda, Md.
(§2) Todd-Hewitt broth (THB), brain heart infusion (BHI) broth, Todd-Hewitt agar (THA), trypticase soy agar (TSA), lactobacilli MRS (MRS) broth, Actinomyces broth and Mueller-Hinton broth (MHB) were purchased from Becton Dickinson. Blood agar plates (BAP) were prepared by supplementing TSA with 5% sheep blood (PML Microbiologicals). All cultures, except for Actinobacillus actinomycetemcomitans, S. mitis and Actinomyces israelii, were grown at 37° C. in room air. Actinobacillus actinomycetemcomitans cultures were grown on BAP or in MHB supplemented with 15 μg haemin ml^−1 (Sigma), 15 μg β-nicotinamide adenine dinucleotide (NAD) ml^−1 (Sigma) and 5% yeast extract (Becton Dickinson) at 37° C. in 5% CO2. S. mitis was grown on BAP or in BHI broth at 37° C. in 5% CO2. Actinomyces israeilli was grown anaerobically in an anaerobic chamber (Coy Laboratory Products) in a 5% CO2/10% H2/85% N2 atmosphere.
(§3) MICs were determined as described by Fuchs et al. (1998) with a slight modification. Procedures were based on the National Committee for Clinical Laboratory Standards broth microdilution method. MHB was used as the main assay medium for most of the tested organisms. Freshly grown cultures at exponential phase were used as the inoculum. Bacteria were centrifuged at 4000 r.p.m. for 15 min at 4° C., suspended in 2× concentrated medium and adjusted to 4×106 c.f.u ml−1 in 2× concentrated medium. Aqueous peptide solution (100 μl) was added to each well of a 96-well, flat-bottomed plate (Becton Dickinson). The peptide solution was serially diluted (twofold) with sterile distilled water in the wells, with final peptide concentrations ranging from 3.13 to 200 μg ml−1. After dispensing 100 μl aliquots of bacterial suspension into the wells, the 96-well plates were incubated at 37° C. for 24-48 h in room air, CO2 or anaerobically. The MIC was defined as the lowest concentration of the peptide that prevented visible turbidity, as measured at 600 nm by using an ELISA reader (Titertek Multiskan MCC/340). […] Minimum bactericidal concentrations (MBCs) were determined by spiral-plating (Spiral Plater Autoplate 4000; Spiral Biotech) 50 μl from each clear well (≧MIC) onto BAP.

[2] = system: Actinomyces israelii ATCC 10049; assay: as above; type: cell-based; details: 24-48 h
Source text: as §1, §2, §3

S. mitis ATCC = assay: as above; type: cell-based; details: 24-48 h
Source text: as §1, §2, §3

L. acidophilus ATCC 4357 = assay: as above; type: cell-based, Lactobacillus acidophilus
Source text: as §1
as §2, with “Actinomyces israeilli was grown anaerobically in an anaerobic chamber (Coy Laboratory Products) in a 5% CO2/10% H2/85% N2 atmosphere.” left out
(§4) MICs were determined as described by Fuchs et al. (1998) with a slight modification. […] The MIC was defined as the lowest concentration of the peptide that prevented visible turbidity, as measured at 600 nm by using an ELISA reader (Titertek Multiskan MCC/340). […] Minimum bactericidal concentrations (MBCs) were determined by spiral-plating (Spiral Plater Autoplate 4000; Spiral Biotech) 50 μl from each clear well (≧MIC) onto BAP.

S. mutans ATCC 25175 = assay: Bactericidal assay (log reduction in viable counts); type: cell-based, Streptococcus mutans
Source text: as §1
The bactericidal assay was performed according to procedures described by Miyasaki et al. (1997, 1998) with a slight modification. […] Susceptibility was determined by examining the log reduction in viability counts of organisms that had been exposed to different concentrations of KSL. […] Bactericidal activity was also expressed as the 99% effective dose (ED99), which is the concentration of the antimicrobial decapeptide at which there is a 2-log or more reduction in c.f.u. […]
In addition to the determinations of MICs and MBCs of KSL, log reductions in viable counts of selected oral bacteria caused by KSL were also determined. […] With the exception of Actinobacillus actinomycetemcomitans, for which the assays were performed in 0.01% BHI, bactericidal action of KSL was determined in isotonic HBSS after incubation with the targeted bacteria for 1 h at 37° C. KSL at 6.25 μg ml^−1, which was determined to be the 99% effective dose (ED99), caused more than 2 log reductions in viable counts of the organisms tested, which included L. salivarius ATCC 29602 (FIG. 3a), S. mutans ATCC 25175^T (FIG. 3b), S. gordonii ATCC 51656 (FIG. 3c), and Actinobacillus actinomycetemcomitans ATCC 43718 (FIG. 3d).

S. mutans LT11 = assay: In vitro susceptibility (broth microdilution MIC, MBC by spiral-plating); type: cell-based, Streptococcus mutans; details: 4 × 10^7 cells ml^−1, 24-48 h
Source text: as §1, with “Md. […]” for “Md.”
as §4

S. sobrinus ATCC 33478 = assay: as above; type: cell-based, Streptococcus sobrinus
Source text: as §1
as §2, with “Actinomyces israeilli was grown anaerobically in an anaerobic chamber (Coy Laboratory Products) in a 5% CO2/10% H2/85% N2 atmosphere.” left out
as §4

S. gordonii DL1 = assay: as above; type: cell-based, Streptococcus gordonii; details: 24-48 h
Source text: as §1, §2
as §3, with “The peptide solution was serially diluted (twofold) with sterile distilled water in the wells, with final peptide concentrations ranging from 3.13 to 200 μg ml−1. After dispensing 100 μl aliquots of bacterial suspension into the wells, the 96-well plates were incubated at 37° C. for 24-48 h in room air, CO2 or anaerobically.” left out

S. gordonii ATCC 51656 = assay: as above; type: cell-based, Streptococcus gordonii; details: 24-48 h
Source text: as §1, §2
as §3, with “The peptide solution was serially diluted (twofold) with sterile distilled water in the wells, with final peptide concentrations ranging from 3.13 to 200 μg ml−1. After dispensing 100 μl aliquots of bacterial suspension into the wells, the 96-well plates were incubated at 37° C. for 24-48 h in room air, CO2 or anaerobically.” left out

[3] = system: Actinobacillus actinomycetemcomitans ATCC 43718; assay: as above; type: cell-based; details: 4 × 10^7 cells ml^−1, 24-48 h
Source text: as §1, with “Md. […]” for “Md.”
as §4

[4] = clear MIC wells plated on BAP, 24-48 h
[5] = MHB, 4 × 10^6 cells ml^−1, 37° C.

Substance: KKVVFKVKFK-NH2 [KSL, lys-lys-val-val-phe-lys-val-lys-phe-lys]
- MIC ([1]; MHB or modified broth, 4 × 10^6 cells ml^−1, 37° C.): 3.13 µg/mL
- MBC ([1]; clear MIC wells plated on BAP): 12.5 µg/mL
- MIC ([2]; 20% Actinomyces broth, anaerobic, 4 × 10^6 cells ml^−1, 37° C.): 6.25 µg/mL
- MBC ([2]; clear MIC wells plated on BAP): 12.5 µg/mL
- MIC (S. mitis ATCC; BHI, 5% CO2, 4 × 10^6 cells ml^−1, 37° C.): 25 µg/mL
- MBC (S. mitis ATCC; clear MIC wells plated on BAP): 50 µg/mL
- concentration inhibiting growth effectively (L. acidophilus ATCC 4357): < 25 µg/mL
- MIC (L. acidophilus ATCC 4357; 10% MRS, 4 × 10^6 cells ml^−1, 37° C., 24-48 h): 3.13 µg/mL
- MBC (L. acidophilus ATCC 4357; [4]): 12.5 µg/mL
- log reduction in viable counts (S. mutans ATCC 25175; 6.25 μg ml^−1, HBSS, FIG. 3b): more than 2 log
- reduction in viability (S. mutans ATCC 25175; concentrations of <10 μg ml^−1): > 3 logs
- ED99 (99% effective dose) (S. mutans ATCC 25175; isotonic HBSS, 1 h at 37° C.): 6.25 µg/mL
- MIC (S. mutans LT11; MHB, 37° C.): 25 µg/mL
- MBC (S. mutans LT11; clear MIC wells plated on BAP): 100 µg/mL
- concentration inhibiting growth effectively (S. sobrinus ATCC 33478): < 25 µg/mL
- MIC (S. sobrinus ATCC 33478; MHB, 4 × 10^6 cells ml^−1, 37° C., 24-48 h): 25 µg/mL
- MBC (S. sobrinus ATCC 33478; [4]): 50 µg/mL
- MIC (S. gordonii DL1; [5]): 50 µg/mL
- MBC (S. gordonii DL1; clear MIC wells plated on BAP): 100 µg/mL
- MIC (S. gordonii ATCC 51656; [5]): 50 µg/mL
- MBC (S. gordonii ATCC 51656; clear MIC wells plated on BAP): 100 µg/mL
- MIC ([3]; 50% BHI, 5% CO2, 37° C.): 100 µg/mL
- MBC ([3]; clear MIC wells plated on BAP): 200 µg/mL
